We go through eight compounds from US9200171B2, “AZO compound and ink containing the compound” (MITSUBISHI CHEMICAL CORPORATION, priority 2011, dated 2015).

Values after ≈ are worked out from the molar mass of the structure shown.

Common to all, as to format: physicochemical
Data set [1] in a line: Absorption-maximum wavelength λmax, molar extinction coefficient ε and solution colour in each solvent. Particulars: for ε: at absorption-maximum wavelength. How it is done: Each of the compounds 1 to 15 and the comparative example compounds 1 and 2 (1 mg each) was dissolved in each solvent (100 ml) and measurement of absorption spectra was performed on Hitachi spectrophotometer U-4100 using a quartz cell having an optical path length for measurement of 10 mm. From the resulting spectra, absorption-maximum wavelength λmax (nm) and molar extinction coefficient ε ([…]) were determined.

Data set [2] is described as follows: Solubility C (saturated concentration at 5° C.) of compound in low-polarity solvent and product εC. Particulars: for ε · C: C at 5° C. As for the experimental part:
The solubility C of each compound in each solvent was measured as follows.
Each compound was added to each solvent until a dissolution residue came to remain, and the mixture was subjected to an ultrasonic treatment for 30 minutes at 30° C. After the mixture was allowed to stand at 5° C. for 24 hours, centrifugal filtration was performed through a filter of 0.1 μm using a microcentrifuge (centrifugal force 5200×g). The resulting saturated solution was diluted to an appropriate concentration, and measurement of absorption spectra was performed on Hitachi spectrophotometer U-4100 using a quartz cell having an optical path length for measurement of 10 mm. The concentration of each compound was determined from a relationship between the absorbance at the absorption-maximum wavelength λmax (nm) and the molar extinction coefficient ε (L·mol^−1·cm^−1) previously measured, and the solubility C (mol·L^−1) was calculated. Moreover, the value of the product of the molar extinction coefficient ε (L·mol^−1·cm^−1) and the solubility C (mol·L^−1), εC, was determined.
Sudan Black B (manufactured by Tokyo Chemical Industry Co., Ltd.) that is a commercially available oil-soluble black dye was added to n-decane (relative permittivity 2.0, solubility in water 1 mg/L or less) until a dissolution residue came to remain, and the mixture was subjected to an ultrasonic treatment for 30 minutes at 30° C. After the mixture was allowed to stand at 5° C. for 24 hours, centrifugal filtration was performed through a filter of 0.1 μm using a microcentrifuge (centrifugal force 5200×g). The resulting saturated n-decane solution was diluted to an appropriate concentration.

A short description of data set [3]: Relative permittivity of solvent (impedance meter method, 1 kHz, 22° C.). Particulars: frequency 1 kHz. The source says:
In the case where the solvent is used as a mixture, when the interaction between the solvents is small as in the invention, the relative permittivity of the mixed solvent can be approximated by multiplying relative permittivity of each solvent constituting the mixed solvent by each volume fraction and summing respective products. Moreover, when the interaction between the solvents is similarly small, solubility of the mixed solvent in water can be approximated by a value obtained by multiplying solubility of each solvent constituting the mixed solvent in water by each molar fraction and summing respective products.
Thereafter, the equivalent parallel capacity was measured while applying a test signal voltage of 0.1 V at a frequency of 1 kHz at 22° C. The relative permittivity was determined through the calculation according to the following equation to evaluate the solvent or ink. Relative permittivity=(equivalent parallel capacity)×(electrode spacing)/(electrode area)/(permittivity in vacuum (ε0)) <Method for Measuring Solubility of Solvent in Water>

Data set [4] is described as follows: Solubility of solvent in water at 25° C. Particulars: pure water, thermodynamic from solid, single solvent. As for the experimental part:
Pure water (30 g) and a solvent (8 g) were introduced into 110 ml of a vial, which was shaken 200 times/minute for 4 hours in a constant-temperature tank at 25° C. The mixture after shaking was centrifuged (6000×g, for 5 minutes), the aqueous layer was sampled, and the concentration of the solvent dissolved was quantitatively determined by gas chromatography. Since Isopar was not a single compound but a mixture, the quantitative determination was performed as TOC (total organic carbon), which was converted into solubility according to the following equation, the average molecular weight being shown as Mw. Solubility [mg/L]=TOC [mg/L]×(14Mw/{12(Mw−2)}
In the case of a mixed solvent in which two or more kinds of solvents were mixed, the solubility in water was determined by multiplying the solubility of each solvent in water by each molar fraction and summing up the resulting products.
In the case where the solvent species used is unclear, the solubility in water can be measured by the above method through identification of the solvent species by mass spectroscopy or the like.

Regarding `CCCCC(CC)COC(=O)C(C#N)=Cc1sc(N=Nc2cc(OC)c(N(CC(CC)CCCC)CC(CC)CCCC)cc2NC(C)=O)nc1Cl` (stereo not shown) [Compound 10], the Absorption-maximum wavelength in data set [1] (Isopar M) amounted to 657 nm; in data set [1] (n-decane), 656 nm; in data set [1] (tetradecane), 658 nm. Further, the Color tone entry in data set [1] (Isopar M solution), in data set [1] (n-decane solution) and in data set [1] (tetradecane solution) was “blue” in each case. For the same compound, the ε in data set [1] (Isopar M) amounted to 54000 L/mol/cm; in data set [1] (n-decane), 61000 L/mol/cm; in data set [1] (tetradecane), 55000 L/mol/cm. Also, the “ε · C” value in data set [2] (Isopar M) turned out to be 5500 cm⁻¹; in data set [2] (n-decane), 5700 cm⁻¹; in data set [2] (tetradecane), 2000 cm⁻¹. Moreover, the Solubility (usually the dissolved amount per volume that the medium holds) in data set [2] (in Isopar M, at 5° C.) turned out to be 64 mM (≈ 48.5 mg/mL); in data set [2] (in n-decane, at 5° C.) it was 93 mM (≈ 70.4 mg/mL); in data set [2] (in tetradecane, at 5° C.), 36 mM (≈ 27.3 mg/mL).
In data set [1] (n-decane), `CCCCC(CC)CN(CC(CC)CCCC)c1ccc(N=Nc2sc(C=C(C#N)C#N)c(Cl)c2C#N)c(NC(=O)C(CC)CCCC)c1` (stereo not shown) [Compound 11] had an Absorption-maximum wavelength of 642 nm and a ε of 60000 L/mol/cm. The Color tone entry in data set [1] (n-decane solution) was “blue”. In addition, in data set [2] (in n-decane, at 5° C.), the Solubility stood at 89 mM (≈ 62.7 mg/mL). In data set [2] (n-decane), the “ε · C” value is 5300 cm⁻¹.
On the same counts, the results for `CCCCC(CC)CN(CC(CC)CCCC)c1cc(NC(C)=O)c(N=Nc2sc(C(=O)OCC)c(C)c2C(=O)OCC)cc1OC` (stereo not shown) [Compound 12] are 582 nm, 46000 L/mol/cm, “blue”, 250 mM (≈ 168 mg/mL) and 12000 cm⁻¹.
For `CCCCc1ccc(N=Nc2cc(C#N)c(N=Nc3cc(OC)c(N(CC(CC)CCCC)CC(CC)CCCC)cc3NC(=O)CC)s2)cc1` (stereo not shown) [Compound 13], in that order: 667 nm, 76000 L/mol/cm, “blue”, 59 mM (≈ 42.1 mg/mL) and 4400 cm⁻¹.
On the same counts, the results for `CCCCOc1ccc(N=Nc2sc(N=Nc3ccc(N(CC(CC)CCCC)CC(CC)CCCC)cc3Cl)nc2C)cc1` (stereo not shown) [Compound 14] are 546 nm, 47000 L/mol/cm, “red”, 150 mM (≈ 98 mg/mL) and 7100 cm⁻¹.
For `CCCCc1ccc(N=Nc2cc(C#N)c(/N=N/c3ccc(N(CC(CC)CCCC)CC(CC)CCCC)cc3C)s2)cc1` (stereo not shown) [Compound 15], in data set [1] (n-decane), the Absorption-maximum wavelength came out at 613 nm and the ε is 64000 L/mol/cm. Further, the Color tone result in data set [1] (n-decane solution) was “blue”. The “ε · C” value in data set [2] (n-decane) is 1700 cm⁻¹. Besides, the solubility – broadly, how much of the substance goes into solution per volume – at 24 h in data set [2] (organic solvent or mixture, thermodynamic from solid, in n-decane, at 5° C.) was 27 mM (≈ 16.9 mg/mL).
In data set [3], `CCCCCCCCCC` [n-decane] gave a relative permittivity of 2.0. In addition, the solubility at 4 h in data set [4] was not above 1 µg/mL.
As to n-decaline, the relative permittivity in data set [3] is reported as 2.0.
